The supplement of paper PMC13380429

Tests used:
Details in all cases: 72 h
Calu-3 [1] = experiment: drug sensitivity score (DSS) for viability; higher = more toxic; extreme values may be limits of the assay
HepG2 [2] = experiment: as above
U2OS [3] = experiment: as above
Caco-2 [4] = experiment: as above
Vero E6 [5] = experiment: as above
Calu-3 [6] = experiment: cell viability relative to DMSO; higher = less toxic
HepG2 [7] = experiment: as above
U2OS [8] = experiment: as above
Caco-2 [9] = experiment: as above
Vero E6 [10] = experiment: as above
Calu-3 [11] = experiment: relative viability EC50 (midpoint between 100% and the lowest measured viability); higher = less toxic
HepG2 [12] = experiment: as above
U2OS [13] = experiment: as above
Caco-2 [14] = experiment: as above
Vero E6 [15] = experiment: as above

Compound	drug sensitivity score (Calu-3 [1])	drug sensitivity score (HepG2 [2])	drug sensitivity score (U2OS [3])	drug sensitivity score (Caco-2 [4])	drug sensitivity score (Vero E6 [5])	cell viability (Calu-3 [6]; 1 nM) [%]	cell viability (Calu-3 [6]; 10 nM) [%]	cell viability (Calu-3 [6]; 100 nM) [%]	cell viability (Calu-3 [6]; 1000 nM) [%]	cell viability (Calu-3 [6]; 10000 nM) [%]	cell viability (HepG2 [7]; 1 nM) [%]	cell viability (HepG2 [7]; 10 nM) [%]	cell viability (HepG2 [7]; 100 nM) [%]	cell viability (HepG2 [7]; 1000 nM) [%]	cell viability (HepG2 [7]; 10000 nM) [%]	cell viability (U2OS [8]; 1 nM) [%]	cell viability (U2OS [8]; 10 nM) [%]	cell viability (U2OS [8]; 100 nM) [%]	cell viability (U2OS [8]; 1000 nM) [%]	cell viability (U2OS [8]; 10000 nM) [%]	cell viability (Caco-2 [9]; 1 nM) [%]	cell viability (Caco-2 [9]; 10 nM) [%]	cell viability (Caco-2 [9]; 100 nM) [%]	cell viability (Caco-2 [9]; 1000 nM) [%]	cell viability (Caco-2 [9]; 10000 nM) [%]	cell viability (Vero E6 [10]; 1 nM) [%]	cell viability (Vero E6 [10]; 10 nM) [%]	cell viability (Vero E6 [10]; 100 nM) [%]	cell viability (Vero E6 [10]; 1000 nM) [%]	cell viability (Vero E6 [10]; 10000 nM) [%]	relative viability EC50 (Calu-3 [11]) [µM]	relative viability EC50 (HepG2 [12]) [µM]	relative viability EC50 (U2OS [13]) [µM]	relative viability EC50 (Caco-2 [14]) [µM]	relative viability EC50 (Vero E6 [15]) [µM]
CN[C@@H](C)CCC=C(C)C [isometheptene-mucate]	0	0	0	0	0	94	100	98.1	100	108	96.1	101	107	94.5	95	104	96.5	98.7	103	105	93.4	102	93.7	93.9	106	91.1	96.2	92.5	97	104	> 10	> 10	> 10	> 10	> 10
O=C(O)Cc1ccc2c(c1)C(=O)c1ccccc1CO2 [isoxepac]	0	0	0	0	0	96.9	97.9	98.5	101	98.5	99.1	103	97.5	101	91.2	102	95.4	101	98.3	101	94.7	102	109	100	93.6	98.3	97.5	101	101	100	> 10	> 10	> 10	> 10	> 10
O=c1c(-c2ccc(O)cc2)coc2c([C@@H]3O[C@H](CO)[C@@H](O)[C@H](O)[C@H]3O)c(O)ccc12 [kakonein]	0	0	0	0	0	104	99.3	111	102	95.5	95.7	97.7	84.6	99.6	93.5	99.2	95.1	99.3	95.2	97.9	122	104	108	106	96.3	98	103	99.1	95.3	91.8	> 10	> 10	> 10	> 10	> 10
O=C(O)c1cc(=O)c2ccccc2[nH]1 [kynurenic-acid]	0	0	0	0	0	89.7	89.2	97.1	94.1	104	93.9	94.2	99.1	108	96	104	101	103	97	98.8	94.9	101	99.6	99.6	106	96.9	98.7	97.6	97.5	97.7	> 10	> 10	> 10	> 10	> 10
O=C1CCC[C@@H]2[C@H]3CCCN4CCC[C@@H](CN12)[C@@H]34 [matrine]	0	0	0	0	0	97	93.5	100	98.5	100	89.9	108	85.8	111	103	96.1	96.4	96.4	93.7	99.1	97.6	94	94.9	91.4	90.4	96.8	98.7	93.3	99.1	104	> 10	> 10	> 10	> 10	> 10
CC(C)(C)NC[C@H](O)c1ccc(O)cc1Cl [meluadrine]	0	0	0	0	0	92.8	104	98.3	104	104	105	106	103	95	105	99.3	101	96.4	100	96.4	97.9	97.6	93.9	97.6	90.7	109	102	102	99.9	104	> 10	> 10	> 10	> 10	> 10
COP(=O)(OC)OC(c1ccc(Cl)cc1)P(=O)(OC)OC (stereo not given) [mifobate]	0	0	0	0	0	93.6	94.1	85.1	96.7	96.3	107	98.5	92.8	99.8	93.7	101	97.5	101	94.4	98.3	106	94.5	98	107	105	101	94.5	98	92.5	100	> 10	> 10	> 10	> 10	> 10
CCOC(=O)Nc1cc2c(c(N)n1)N=C(c1ccccc1)[C@H](C)N2 [mivobulin]	23.7	31.1	32.4	23.8	38.5	95.7	65.2	37.5	40.7	42.7	99.6	42.9	24.1	21.5	22.9	95.7	38.6	20.7	23.3	21.9	103	52.5	48.7	47.3	42.2	94.3	20.2	8.2	9.9	13.5	0.0083	0.0067	0.005	0.0055	0.0039
CCCC[C@H](NC(=O)[C@@H]1[C@@H]2[C@H](CN1C(=O)[C@@H](NC(=O)NC1(CS(=O)(=O)C(C)(C)C)CCCCC1)C(C)(C)C)C2(C)C)C(=O)C(=O)NC1CC1 [narlaprevir]	0	0	0	0	0.1	90.9	108	92.5	94.5	107	102	112	96.3	103	94.7	104	98.8	100	96.9	97.1	100	96.4	102	93.8	95.5	98.1	100	102	99.5	87.8	> 10	> 10	> 10	> 10	> 10
CCC[N+]12[C@H](O)[C@@H](CC)[C@@H]3C[C@H]1[C@@H]1N(C)c4ccccc4[C@]14C[C@H]2[C@@H]3[C@H]4O [neo-gilurytmal]	0	0	0	1.3	0	104	98	96.4	100	91.4	93.4	99.1	92.3	97.8	104	100	95.7	101	91.5	101	103	99.3	92.6	86.2	93.1	100	99.4	98.4	97.4	95.7	> 10	> 10	> 10	> 10	> 10
NCC(O)c1ccc(O)cc1 (stereo not given) [octopamine]	0	0	0	0.1	0	108	105	93	108	95.6	91.7	103	95.9	97.5	117	95.1	97.3	101	96.5	95.6	87.1	96.9	94	100	86.1	106	96.6	101	85.1	100	> 10	> 10	> 10	> 10	> 10
Cn1cnc2c(NCc3ccccc3)nc(NCCO)nc21 [olomoucine]	0	0	0	0	0	102	97.9	96	99.9	105	106	106	96.4	112	114	103	101	103	96.9	108	97.5	93.3	92.5	98.7	106	93	98.1	96	99.7	104	> 10	> 10	> 10	> 10	> 10
COc1ccc2ccc(=O)oc2c1CC=C(C)C [osthol]	0	0	0	0	0	86.6	98.2	104	114	108	96.5	105	98.8	106	100	92.9	100	93.3	99	102	94.3	95.1	94	100	101	95.1	94.4	95.9	93.2	99.2	> 10	> 10	> 10	> 10	> 10
CC[C@H](C)[C@@H]1NC(=O)[C@H](Cc2ccc(O)cc2)NC(=O)[C@@H](N)CSSC[C@@H](C(=O)N2CCC[C@H]2C(=O)N[C@@H](CC(C)C)C(=O)NCC(N)=O)NC(=O)[C@H](CC(N)=O)NC(=O)[C@H](CCC(N)=O)NC1=O [oxytocin]	0	0	0	0	0	92	93.8	98.9	103	97	114	96.1	105	87.7	99.2	98.2	99	98.3	98.5	95.7	95.5	122	82.2	100	100	106	112	98.7	105	99.2	> 10	> 10	> 10	> 10	> 10
